# Results: publication PMC5648786, “Characterization of a dual function macrocyclase enables design and use of efficient macrocyclization substrates” (Nature Communications, 2017)
# Several values for one entry are separate records, joined by “and”; a condition that tells them apart may be missing. Equal values may be shown once. No end group written: not given here.
# Tests used:
# [1] = molecular target: T1, GmPOPB-S577A (inactive mutant) (Galerina marginata, UniProt H2E7Q8, S577A); assay: Isothermal titration calorimetry, peptide binding to inactive mutant GmPOPB_S577A; details: for -TΔS / ΔG / ΔH / Kd: ITC, 20 °C; for -TΔS / ΔG / ΔH: average ± SEM; for Kd: peptide titrated into GmPOPB_S577A, 50 mM Tris pH 8.0, 50 mM NaCl, 10 mM DTT, single-site model, n fixed at 1.0, average ± SEM of at least 2 measurements
# T1 construct: His-tag (TEV-cleavable) (cleaved yes); made in house; host or cells: E. coli BL21(DE3)
# T1 sequence (H2E7Q8 1-730 S577A): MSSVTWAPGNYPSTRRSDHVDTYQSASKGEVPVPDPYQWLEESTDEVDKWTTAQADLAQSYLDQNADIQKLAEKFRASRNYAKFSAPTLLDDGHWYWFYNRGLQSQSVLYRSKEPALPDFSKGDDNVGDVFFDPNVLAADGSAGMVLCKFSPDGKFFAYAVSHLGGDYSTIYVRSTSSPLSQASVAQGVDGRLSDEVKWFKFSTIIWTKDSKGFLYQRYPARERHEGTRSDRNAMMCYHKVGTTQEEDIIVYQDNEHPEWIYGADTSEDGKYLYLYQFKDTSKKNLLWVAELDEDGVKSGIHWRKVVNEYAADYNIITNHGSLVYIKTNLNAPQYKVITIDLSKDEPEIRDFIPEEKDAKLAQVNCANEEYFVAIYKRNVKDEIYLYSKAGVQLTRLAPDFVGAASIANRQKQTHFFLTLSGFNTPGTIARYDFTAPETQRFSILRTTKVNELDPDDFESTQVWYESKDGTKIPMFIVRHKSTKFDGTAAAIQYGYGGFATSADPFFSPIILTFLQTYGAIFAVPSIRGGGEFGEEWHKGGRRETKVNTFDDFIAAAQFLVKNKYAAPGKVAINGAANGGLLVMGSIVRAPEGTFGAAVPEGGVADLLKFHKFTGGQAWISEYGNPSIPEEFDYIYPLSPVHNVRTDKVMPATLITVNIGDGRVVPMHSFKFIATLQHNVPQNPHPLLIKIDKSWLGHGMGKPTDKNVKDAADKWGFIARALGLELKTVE
# [2] = system: CC[C@H](C)[C@H](NC(=O)CNC(=O)[C@H](Cc1c[nH]c2ccccc12)NC(=O)[C@@H](NC(=O)[C@@H]1CCCN1C(=O)[C@H](CC(C)C)NC(=O)[C@H](CCCNC(=N)N)NC(=O)[C@@H](NC(=O)[C@H](C)NC(=O)[C@H](CC(N)=O)NC(=O)[C@@H](NC(=O)[C@H](CC(=O)O)NC(=O)[C@H](Cc1ccccc1)NC(=O)[C@@H](N)CCSC)[C@@H](C)O)[C@@H](C)O)[C@@H](C)CC)C(=O)NCC(=O)N[C@@H](CS)C(=O)N[C@@H](CC(N)=O)C(=O)N1CCC[C@H]1C(=O)N[C@@H](Cc1c[nH]c2ccccc12)C(=O)N[C@H](C(=O)N[C@@H](C)C(=O)N[C@@H](CCC(=O)O)C(=O)N[C@@H](Cc1c[nH]cn1)C(=O)N[C@H](C(=O)N[C@@H](CC(=O)O)C(=O)N[C@@H](CCC(N)=O)C(=O)N[C@H](C(=O)N[C@@H](CC(C)C)C(=O)N[C@@H](C)C(=O)N[C@@H](CO)C(=O)NCC(=O)N[C@@H](CC(N)=O)C(=O)N[C@@H](CC(=O)O)C(=O)N[C@H](C(=O)N[C@@H](CS)C(=O)O)[C@@H](C)CC)[C@@H](C)O)C(C)C)[C@@H](C)O; assay: purified protein, by the assay type; details: pH 8.0
# Procedure: (§1) Comparison between distinct substrates was performed in 50 mM Tris pH 8.0, 50 mM NaCl, 10 mM DTT with varying concentrations of substrates at room temperature. All reactions were performed in duplicates. Reactions were started by adding GmPOPB (50 nM for GmAMA1_C6S, 1 μM for the 13mer and 14mer, and 20 nM for other substrates) to the assay mixture containing buffer and peptide. Reactions were quenched at several time points by adding 50 μL reaction mixture to 20 μL 6% TFA. Reactants were separated from products for quantification by injecting 50 μL of each quenched time point mix onto a ZORBAX SB-C18, 5 µm, 9.4 × 50 mm (Agilent) column connected to an Agilent LC-MS (G6130B Single Quad, Agilent Technologies). Reactants were separated from products using a gradient from H2O containing 0.1% TFA or 0.1% formic acid and 5% acetonitrile to 50% acetonitrile, at 1.5 ml/min for 8 min. […] The sum of product+substrate was assumed equal to the total initial amount of substrate, product converted from % to concentration. This value was divided by concentration of enzyme present to yield v/E t (min^−1). […] For progress curves with the 35mer substrate, measurements were triplicate and quantification relied on ion counts from mass spectrometry. […] Authentic cyclic peptide was quantified by UV absorbance. […] Kinetic data were fitted to a Michaelis–Menten equation using GraphPad Prism, and values reported are average and standard error of the mean.
# [3] = system: CC[C@H](C)[C@H](N)C(=O)N[C@@H](Cc1c[nH]c2ccccc12)C(=O)NCC(=O)N[C@H](C(=O)NCC(=O)N[C@@H](CS)C(=O)N[C@@H](CC(N)=O)C(=O)N1CCC[C@H]1C(=O)N[C@@H](Cc1c[nH]c2ccccc12)C(=O)N[C@H](C(=O)N[C@@H](C)C(=O)N[C@@H](CCC(=O)O)C(=O)N[C@@H](Cc1c[nH]cn1)C(=O)N[C@H](C(=O)O)C(C)C)[C@@H](C)O)[C@@H](C)CC; assay: purified protein, by the assay type; details: pH 8.0
# Procedure: as §1
# [4] = system: CC[C@H](C)[C@H](N)C(=O)N[C@@H](Cc1c[nH]c2ccccc12)C(=O)NCC(=O)N[C@H](C(=O)NCC(=O)N[C@@H](CS)C(=O)N[C@@H](CC(N)=O)C(=O)N1CCC[C@H]1C(=O)N[C@@H](Cc1c[nH]c2ccccc12)C(=O)N[C@H](C(=O)N[C@@H](C)C(=O)N[C@@H](CCC(=O)O)C(=O)N[C@@H](Cc1c[nH]cn1)C(=O)O)[C@@H](C)O)[C@@H](C)CC; assay: purified protein, by the assay type; details: pH 8.0
# Procedure: as §1
# [5] = Peptide solubility when preparing ITC ligand solutions; assay type: physicochemical; details: peptide ligand solution for ITC
# Procedure: Supplementary Table 3 Thermodynamic parameters obtained by ITC.
# Peptide Sequence Kd (μM) ΔG ΔH -TΔS N
# (kcal mol-1) (kcal mol-1) (kcal mol-1) measurements
# 9mer IW GIGCNPW ND ND ND ND
# ND – peptide solubility was lower than 300 μM and measurements could not be
# Errors reported are standard error of the mean using the replicates indicated in the
# table and the fitted values using Malvern data analysis software.
Molecule,-TΔS ([1]; GmPOPB_S577A),ΔG ([1]; GmPOPB_S577A),ΔH ([1]; GmPOPB_S577A),Kd [1],further results
CC[C@H](C)[C@H](NC(=O)CNC(=O)[C@H](Cc1c[nH]c2ccccc12)NC(=O)[C@@H](NC(=O)[C@@H]1CCCN1C(=O)[C@H](CC(C)C)NC(=O)[C@H](CCCNC(=N)N)NC(=O)[C@@H](NC(=O)[C@H](C)NC(=O)[C@H](CC(N)=O)NC(=O)[C@@H](NC(=O)[C@H](CC(=O)O)NC(=O)[C@H](Cc1ccccc1)NC(=O)[C@@H](N)CCSC)[C@@H](C)O)[C@@H](C)O)[C@@H](C)CC)C(=O)NCC(=O)N[C@@H](CS)C(=O)N[C@@H](CC(N)=O)C(=O)N1CCC[C@H]1C(=O)N[C@@H](Cc1c[nH]c2ccccc12)C(=O)N[C@H](C(=O)N[C@@H](C)C(=O)N[C@@H](CCC(=O)O)C(=O)N[C@@H](Cc1c[nH]cn1)C(=O)N[C@H](C(=O)N[C@@H](CC(=O)O)C(=O)N[C@@H](CCC(N)=O)C(=O)N[C@H](C(=O)N[C@@H](CC(C)C)C(=O)N[C@@H](C)C(=O)N[C@@H](CO)C(=O)NCC(=O)N[C@@H](CC(N)=O)C(=O)N[C@@H](CC(=O)O)C(=O)N[C@H](C(=O)N[C@@H](CS)C(=O)O)[C@@H](C)CC)[C@@H](C)O)C(C)C)[C@@H](C)O [35mer],-1.2 ± 0.4 kcal/mol,-9.3 ± 0.1 kcal/mol,,,
GmPOPB (Galerina marginata CBS 339.88),,,,,Km [2]: 23 ± 11 µM; kcat [2]: 0.0533 ± 0.0067 s⁻¹; kcat/Km [2]: 2330 ± 1200 M⁻¹ s⁻¹; Km [3]: 380 µM; kcat [3]: 0.00967 s⁻¹; kcat/Km [3]: 16.7 ± 1.7 M⁻¹ s⁻¹; Km [4]: 24.4 ± 5.2 µM and 25 µM; kcat [4]: 0.00817 ± 0.0005 s⁻¹ and 0.00817 s⁻¹; kcat/Km [4]: 333 ± 67 M⁻¹ s⁻¹
IWGIGCNPW [9mer],,,,,"solubility ([5]; aqueous buffer, Tris pH 8.0 buffer with DTT): < 300 µM; Peptide solubility [5]: not sufficiently soluble for analysis"
IWGIGCNPWT [10mer],-2.4 ± 0.3 kcal/mol,-5.5 ± 0.1 kcal/mol,-3.1 ± 0.5 kcal/mol,83 ± 17 µM,
IWGIGCNPWTA [11mer],,-5.9 ± 0.3 kcal/mol,-1.5 ± 0.7 kcal/mol,39 ± 18 µM,
IWGIGCNPWTAE [12mer],-5.3 ± 0.4 kcal/mol,-6.3 ± 0.1 kcal/mol,-1.0 ± 0.3 kcal/mol,21 ± 5 µM,
IWGIGCNPWTAEH [13mer],-6.9 ± 0.2 kcal/mol,-7.3 ± 0.1 kcal/mol,-0.6 ± 0.2 kcal/mol,2.4 ± 0.1 µM,"Difference in affinity (reduction in binding) between the 35mer and the 13mer ([1]; ratio of ITC Kd values, GmPOPB_S577A): ~ 20 fold"
